# Data from patent US20220387392A1, “METHODS AND COMPOSITIONS RELATED TO THE USE OF ERGOTHIONEINE” (priority 2020, published 2022).
# Columns and labels:
# [1] = ingested; rats; cited from earlier work
# [2] = system: neonatal human fibroblast cells; test: Proliferative analysis (population doubling, growth curves); assay type: cell-based
# Protocol: (§1) Primary cultures of neonatal human fibroblast cells were established. Cells were seeded at 5×10^3 cells/cm^2), in Fibroblast Medium (Innoprot). Media was renewed every 2 to 3 days and cells were passaged at sub-confluence (70-80%) every 7 days. Cells were expanded during eight weeks under standard and oxidative (10 μM H2O2) cell culture condition as described previously. Different concentrations of ergothioneine (0.04, 0.3, 0.1, and 1.0 mg/ml) or vehicle control were added to the treated or control cells, respectively. Treatment dilutions were prepared fresh in each passage with fresh media. Cell growth was monitored for each condition by counting cell numbers at each passage using a Countess™ cell counter (Invitrogen). Population doubling (PD) was calculated with the formula PD=3.322(Log(Cf)−Log (Ci))+X (where, Cf: Final concentration; Ci: initial concentration; X: PD last passage). One PD is equivalent to one round of cell replication.
# (§2) Each treatment was tested in triplicate and in different plates. Each plate contained a control sample. Frozen vials were obtained at different time points for analysis of relative telomerase activity and telomere length.
# telomerase = test: Relative telomerase activity (Q-TRAP); assay type: cell-based, human
# Protocol: The quantitative polymerase chain reaction (PCR)-based telomeric repeat amplification protocol (Q-TRAP) is a sensitive and accurate PCR-based assay that enables the measurement of telomerase activity. Cellular pellets from neonatal fibroblast cells were lysed using the CHAPS (3-cholamidopropyl dimethylammonio 1-propanesulfonate) lysis buffer for protein extraction. Samples were stored at 4° C. and were used within 24 hours. Protein quantification was performed for each sample using Biorad protein assay (Bio-Rad Kit 50000002). A minimum of 0.3 mg/ml protein concentration was required to proceed with the analysis of the samples. Telomerase protein extracts are then incubated at 27° C. for 30 min to allow the telomerase in the protein extracts to elongate the TS primer by adding TTAGGG repeat sequences. Following the enzymatic reaction, telomerase extension products are then amplified and quantified by real-time qPCR using SYBR Green (a green fluorescent cyanine dye). PCR was initiated at 95° C. for 10 min, followed by a 40-cycle amplification (95° C. for 15 s, 60° C. for 60 s) and a melt curve stage step. Reactions were monitored and analyzed with QuantStudio 5 (Applied Biosystems). Telomerase activity in cell lines or samples is calculated based on the threshold cycle (Ct). All samples were run in triplicate.
# The telomerase-positive standard dilution series is plotted against the telomere protein concentration (r^2>0.9) as a standard curve of Ct values. The standard curve is generated by graphing threshold cycles (Ct values) of HeLa cell line standards against log of 1000, 333, 111, 37.03, 12.34, 4.11, 1.37 and 0.45 ng of protein (whole cell extract).
# [3] = system: human neonatal dermal fibroblasts; test: Telomere length measurement by Telomere Analysis Technology (TAT, HT Q-FISH); assay type: cell-based; conditions: for proportion of short telomeres (<3 kbp): control 8.1±0.6
# Protocol: (§3) Primary cultures of human neonatal dermal fibroblasts (ATCC® PCS-201-010™) were established under standard culture conditions. Cells were seeded at 3×10^3 cells/cm^2 and were grown and maintained in Fibroblast Medium (Innoprot).
# as §1, §2
# All telomere length measurements were performed using Life Length's proprietary Telomere Analysis Technology (TAT®). TAT® measures telomere length using a high-throughput (HT) Q-FISH (quantitative fluorescent in situ hybridization) technique as previously described. This method is based on a quantitative fluorescence in-situ hybridization method modified for measuring individual chromosomes of cells in interphase. In brief, telomeres are hybridized with a fluorescent Peptide Nucleic Acid probe (PNA) that recognizes three telomere repeats (sequence: Alexa488-OO-CCCTAACCCTAACCCTAA, purchased from Panagene). The images of the nuclei and telomeres are captured by a high-content screen system. The intensity of the fluorescent signal from the telomeric PNA probes that hybridize to a given telomere is proportional to the length of that telomere. The intensities of fluorescence are translated to base pairs (bp) through a standard regression curve which is generated using control cell lines with known telomere length. TAT® not only measures telomere length in absolute base pair units, it also provides an assessment of the distribution, 50th and 20th percentiles of telomere length and the percent of short telomeres, allowing for a more comprehensive analysis of each sample. All samples are run in quintuplicate.
# Results obtained from each treatment and at each time point were compared with the appropriate control group using Student's t test (independent samples t-test).
# [4] = system: primary neonatal fibroblast cells; test: MTT assay, cytotoxicity of ergothioneine; assay type: cell-based, human; conditions: all concentrations tested (0.04, 0.1, 0.3, and 1.0 mg/ml); 72 hours and one week; with and without 10 μM H2O2
# Protocol: as §3
# The MTT assay is a colorimetric assay that uses a yellow tetrazolium salt (3-(4,5-dimethylthiazol-2-yl)-2,5-diphenyltetrazolium bromide, or MTT) to measure metabolic activity of cells as a proxy for cell viability. MTT reduction rate is an indicator of the functional integrity of the mitochondria and as a result, of cellular viability. To determine the cytotoxicity of ergothioneine on primary neonatal fibroblast cells, the cells were seeded in 96 well plates (Nunc) at 0.35×10^4 cells/plate and 0.5×10^4 cells/plate for 72 hours and 1-week treatment. After 24 hours from seeding, the cells were washed once with phosphate-buffered saline (PBS) and treated with the respective compounds in cell culture media. Ergothioneine was dissolved in dimethyl sulfoxide (DMSO). […] Each condition was tested in triplicates with and without 10 μM H2O2. For positive and negative controls, 8 mM methyl methane sulfonate (MMS) and DMSO 100% were used, respectively. […] Absorbance was measured using an Envision multiplate reader at a wavelength of 570 nm.
# The percentage of cell death was calculated using the following equation: […]
# [5] = system: primary neonatal fibroblast cells; test: Morphological analysis through optical microscopy visualization; assay type: cell-based, human; conditions: concentrations of up to 1.0 mg/ml
# [6] = humans, supplementation for 7 days, cited from earlier work
compound,measurement,setting,value
C[N+](C)(C)[C@@H](Cc1c[nH]c(=S)[nH]1)C(=O)[O-] [ergothioneine],whole-body half-life,[1],1 month
same,proliferative capacity vs control,"[2]; oxidative culture conditions (10 μM H2O2), 1.0 or 0.3 mg/ml, after Week 4",increase in their proliferative capacity
same,proliferative capacity vs control,"[2]; standard culture conditions, 0.04-1.0 mg/ml, 8 weeks",no differences
same,telomerase activity vs control cells,"telomerase; 6 hours, all dose levels",significantly lower
same,"telomerase activity, higher compared with control cells","telomerase; 24 hours, all dose levels, p<0.05",50-90%
same,telomerase activity vs control,"telomerase; 48 hours, statistically significant only for 0.04 mg/ml and 1.0 mg/ml",still elevated
same,telomerase activity vs control,telomerase; 72 hours,not significantly different
same,effect on telomeres (FIG. 7D),[3]; dose of 0.3 mg/ml,telomere lengthening
same,median telomere length vs control,"[3]; oxidative conditions (10 μM H2O2), Week 4, 0.1 or 1.0 mg/ml, p<0.05",higher median telomere length
same,median telomere length,"[3]; oxidative conditions (10 μM H2O2), Week 8, 0.04 mg/ml, control 8725±94",9015±112 bp
same,median telomere length,"[3]; oxidative conditions (10 μM H2O2), Week 8, 0.1 mg/ml, control 8725±94",8794±212 bp
same,median telomere length,"[3]; oxidative conditions (10 μM H2O2), Week 8, 0.3 mg/ml, control 8725±94 bp, in bp",9068±24
same,median telomere length,"[3]; oxidative conditions (10 μM H2O2), Week 8, 1.0 mg/ml, control 8725±94",8997±171 bp
same,20th percentile telomere length vs control,"[3]; oxidative conditions, Week 4, 0.1, 0.3, or 1.0 mg/ml, p<0.05",greater telomere length
same,reduction of telomere shortening rate,"[3]; oxidative conditions, Week 4, all concentrations, significant for 0.04, 0.1 and 1.0 mg/ml",27-52%
same,percentage of short telomeres (<3 kbp) vs control,"[3]; oxidative conditions, Week 4 and Week 8, all concentrations",reduced the percentage of short telomeres
same,20th percentile telomere length vs control,"[3]; oxidative conditions, Week 8, all concentrations",significant increases
same,telomere shortening rate vs control,"[3]; oxidative conditions, Week 8, did not reach statistical significance",appeared to be lower
same,20th percentile telomere length vs control,"[3]; standard conditions, Week 4, 0.3 mg/ml or 1.0 mg/ml",greater
same,proportion of short telomeres (<3 kbp),"[3]; standard conditions, Week 4, 0.3 mg/ml",7.3±1.1%
same,median telomere length,"[3]; standard conditions, Week 4, 0.3 mg/ml, control 9378±107",9637±340 bp
same,proportion of short telomeres (<3 kbp),"[3]; standard conditions, Week 4, 1.0 mg/ml",6.8±1.0%
same,median telomere length,"[3]; standard conditions, Week 4, 1.0 mg/ml, control 9378±107",9745±206 bp
same,telomere shortening rate vs control,"[3]; standard conditions, Week 4, 1.0 mg/ml, p=0.09",trend for decreased telomere shortening rate
same,telomere shortening rate vs control,"[3]; standard conditions, Week 4, 0.1 or 0.3 mg/ml, normalized by population doublings",significantly lower
same,protective effects on telomeres seen at Week 4,"[3]; standard conditions, Week 8",no longer present
same,cell death,[4],< 20%
same,deleterious effects by morphological analysis,[5],did not produce any deleterious effects
same,concentration in whole blood,[6]; approximately,30 to 40 µM
same,concentration in plasma,[6],approximately 3 μM
